Measurements reported in ChEMBL document CHEMBL3991601, “The target landscape of clinical kinase drugs” (Science, 2017).
The source made the active and inactive calls. Cut-off read from the data, not from the text of the source, for most assays here: actives have a measured Kd and inactives only a lower limit.

How the values were obtained:
Insulin receptor = Insulin receptor (Homo sapiens, UniProt P06213)
[1] = molecular target: BMP-2-inducible protein kinase (Homo sapiens, UniProt Q9NSY1)
[2] = molecular target: T1, Bone morphogenetic protein receptor type-2 (Homo sapiens, UniProt Q13873)
T1 sequence (Q13873 whole entry): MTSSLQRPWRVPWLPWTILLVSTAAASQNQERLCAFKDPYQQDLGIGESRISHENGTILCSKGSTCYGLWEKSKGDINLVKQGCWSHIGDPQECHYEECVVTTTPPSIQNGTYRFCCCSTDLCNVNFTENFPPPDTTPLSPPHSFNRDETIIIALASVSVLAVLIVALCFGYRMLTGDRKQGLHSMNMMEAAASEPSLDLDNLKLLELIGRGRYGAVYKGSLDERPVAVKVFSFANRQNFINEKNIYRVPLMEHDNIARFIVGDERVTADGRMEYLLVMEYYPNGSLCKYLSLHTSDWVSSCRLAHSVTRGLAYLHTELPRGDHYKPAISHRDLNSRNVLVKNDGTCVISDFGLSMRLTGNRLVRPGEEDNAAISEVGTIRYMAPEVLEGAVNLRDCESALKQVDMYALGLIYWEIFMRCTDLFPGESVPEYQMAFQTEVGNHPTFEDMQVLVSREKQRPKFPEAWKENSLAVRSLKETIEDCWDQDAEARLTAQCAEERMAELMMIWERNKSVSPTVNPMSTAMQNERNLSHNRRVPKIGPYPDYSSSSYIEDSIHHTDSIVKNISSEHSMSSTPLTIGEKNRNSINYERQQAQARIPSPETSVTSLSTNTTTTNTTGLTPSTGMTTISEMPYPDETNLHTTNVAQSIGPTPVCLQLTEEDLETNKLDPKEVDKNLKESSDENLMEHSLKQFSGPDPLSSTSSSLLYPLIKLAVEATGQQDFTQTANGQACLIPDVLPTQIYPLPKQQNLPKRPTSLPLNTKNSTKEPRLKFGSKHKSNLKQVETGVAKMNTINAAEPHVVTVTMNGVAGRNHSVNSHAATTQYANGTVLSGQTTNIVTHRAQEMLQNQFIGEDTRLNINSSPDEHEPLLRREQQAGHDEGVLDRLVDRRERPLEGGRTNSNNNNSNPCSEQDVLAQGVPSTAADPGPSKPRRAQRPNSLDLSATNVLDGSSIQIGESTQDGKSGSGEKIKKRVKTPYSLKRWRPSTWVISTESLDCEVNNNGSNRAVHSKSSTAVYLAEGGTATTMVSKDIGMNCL

[3] = molecular target: Serine/threonine-protein kinase/endoribonuclease IRE1 (Homo sapiens, UniProt O75460)
Sequence of Serine/threonine-protein kinase/endoribonuclease IRE1 (O75460 whole entry): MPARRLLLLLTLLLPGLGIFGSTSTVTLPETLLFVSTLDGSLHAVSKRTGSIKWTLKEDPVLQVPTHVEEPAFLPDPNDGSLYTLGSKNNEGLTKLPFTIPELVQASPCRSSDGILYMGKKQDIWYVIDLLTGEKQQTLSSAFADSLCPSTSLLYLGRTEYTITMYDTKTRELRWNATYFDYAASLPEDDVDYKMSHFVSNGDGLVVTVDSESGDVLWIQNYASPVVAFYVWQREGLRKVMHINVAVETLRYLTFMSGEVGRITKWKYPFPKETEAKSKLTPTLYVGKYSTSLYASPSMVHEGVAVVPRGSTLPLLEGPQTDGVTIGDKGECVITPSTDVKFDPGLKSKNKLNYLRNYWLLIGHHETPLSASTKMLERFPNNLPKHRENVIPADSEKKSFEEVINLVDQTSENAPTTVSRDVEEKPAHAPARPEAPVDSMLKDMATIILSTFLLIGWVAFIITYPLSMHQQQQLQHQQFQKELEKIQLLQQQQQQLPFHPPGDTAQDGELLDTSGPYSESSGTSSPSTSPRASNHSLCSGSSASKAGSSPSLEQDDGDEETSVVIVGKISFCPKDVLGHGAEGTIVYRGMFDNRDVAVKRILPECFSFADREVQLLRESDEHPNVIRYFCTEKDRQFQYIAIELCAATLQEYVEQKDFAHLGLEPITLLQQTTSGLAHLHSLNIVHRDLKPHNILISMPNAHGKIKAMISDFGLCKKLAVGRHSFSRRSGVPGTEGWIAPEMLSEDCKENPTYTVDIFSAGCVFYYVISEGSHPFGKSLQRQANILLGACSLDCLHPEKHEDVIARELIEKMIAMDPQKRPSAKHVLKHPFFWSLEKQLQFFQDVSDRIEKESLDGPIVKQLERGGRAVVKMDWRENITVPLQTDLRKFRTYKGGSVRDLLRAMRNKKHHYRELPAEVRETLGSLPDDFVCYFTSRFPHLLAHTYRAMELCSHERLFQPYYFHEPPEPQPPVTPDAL

[4] = molecular target: T2, STE20-related kinase adapter protein alpha (Homo sapiens, UniProt Q7RTN6)
T2 sequence (Q7RTN6 whole entry): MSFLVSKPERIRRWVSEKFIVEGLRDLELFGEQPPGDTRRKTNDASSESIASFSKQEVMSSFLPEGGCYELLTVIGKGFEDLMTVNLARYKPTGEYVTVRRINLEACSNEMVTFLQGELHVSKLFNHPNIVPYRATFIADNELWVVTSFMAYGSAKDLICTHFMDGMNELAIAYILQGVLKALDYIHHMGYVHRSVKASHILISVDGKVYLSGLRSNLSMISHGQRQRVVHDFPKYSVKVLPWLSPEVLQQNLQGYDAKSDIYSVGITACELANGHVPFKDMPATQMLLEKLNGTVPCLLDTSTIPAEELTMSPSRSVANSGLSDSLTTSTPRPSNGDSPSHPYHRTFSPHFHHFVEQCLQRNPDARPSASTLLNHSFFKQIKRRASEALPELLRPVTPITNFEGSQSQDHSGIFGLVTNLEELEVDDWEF

Glycine--tRNA ligase = molecular target: T3, Glycine--tRNA ligase (Homo sapiens, UniProt P41250)
T3 sequence (P41250 whole entry): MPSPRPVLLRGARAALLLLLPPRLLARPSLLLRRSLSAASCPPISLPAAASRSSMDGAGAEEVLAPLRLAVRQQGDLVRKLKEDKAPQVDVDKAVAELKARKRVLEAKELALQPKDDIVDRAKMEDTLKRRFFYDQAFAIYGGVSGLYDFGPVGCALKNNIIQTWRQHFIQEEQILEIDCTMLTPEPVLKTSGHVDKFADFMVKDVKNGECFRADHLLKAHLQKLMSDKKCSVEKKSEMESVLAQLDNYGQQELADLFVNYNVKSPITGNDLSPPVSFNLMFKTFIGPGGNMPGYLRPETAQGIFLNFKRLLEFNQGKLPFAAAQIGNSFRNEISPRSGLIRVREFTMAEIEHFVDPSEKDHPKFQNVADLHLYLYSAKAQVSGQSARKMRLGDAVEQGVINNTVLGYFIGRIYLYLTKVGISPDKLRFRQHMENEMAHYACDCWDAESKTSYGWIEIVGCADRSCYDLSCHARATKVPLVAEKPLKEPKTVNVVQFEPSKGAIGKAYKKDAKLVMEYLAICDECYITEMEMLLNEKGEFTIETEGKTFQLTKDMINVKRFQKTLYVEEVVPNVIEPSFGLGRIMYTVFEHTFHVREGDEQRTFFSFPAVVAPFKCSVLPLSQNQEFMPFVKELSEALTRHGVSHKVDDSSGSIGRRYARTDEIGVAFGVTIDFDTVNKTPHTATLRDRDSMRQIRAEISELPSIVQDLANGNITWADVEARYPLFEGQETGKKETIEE

[5] = molecular target: T4, Ribosyldihydronicotinamide dehydrogenase [quinone] (Homo sapiens, UniProt P16083)
T4 sequence (P16083 whole entry): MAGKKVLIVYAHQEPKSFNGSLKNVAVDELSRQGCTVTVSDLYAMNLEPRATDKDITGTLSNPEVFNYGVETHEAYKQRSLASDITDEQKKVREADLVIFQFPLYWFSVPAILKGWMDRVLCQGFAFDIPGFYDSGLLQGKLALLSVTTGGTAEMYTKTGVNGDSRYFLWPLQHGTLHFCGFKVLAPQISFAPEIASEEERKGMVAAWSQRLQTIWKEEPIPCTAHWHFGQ

[6] = molecular target: Tyrosine-protein kinase Lyn (Homo sapiens, UniProt P07948)
Sequence of Tyrosine-protein kinase Lyn (P07948 whole entry): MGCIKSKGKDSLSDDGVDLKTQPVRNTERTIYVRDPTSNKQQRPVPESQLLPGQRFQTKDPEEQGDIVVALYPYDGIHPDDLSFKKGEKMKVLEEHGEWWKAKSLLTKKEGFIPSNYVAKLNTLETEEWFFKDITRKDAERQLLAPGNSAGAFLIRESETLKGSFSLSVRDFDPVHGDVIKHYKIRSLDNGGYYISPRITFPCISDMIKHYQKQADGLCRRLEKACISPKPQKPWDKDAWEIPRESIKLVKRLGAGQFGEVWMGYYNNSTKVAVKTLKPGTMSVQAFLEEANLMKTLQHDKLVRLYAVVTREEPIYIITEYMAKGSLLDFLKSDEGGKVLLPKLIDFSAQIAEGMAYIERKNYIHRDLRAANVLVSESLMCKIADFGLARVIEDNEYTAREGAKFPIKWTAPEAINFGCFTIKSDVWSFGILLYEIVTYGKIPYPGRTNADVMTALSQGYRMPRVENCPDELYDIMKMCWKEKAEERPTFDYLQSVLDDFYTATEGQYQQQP

[7] = molecular target: Dual specificity protein kinase CLK1 (Homo sapiens, UniProt P49759)
Sequence of Dual specificity protein kinase CLK1 (P49759 whole entry): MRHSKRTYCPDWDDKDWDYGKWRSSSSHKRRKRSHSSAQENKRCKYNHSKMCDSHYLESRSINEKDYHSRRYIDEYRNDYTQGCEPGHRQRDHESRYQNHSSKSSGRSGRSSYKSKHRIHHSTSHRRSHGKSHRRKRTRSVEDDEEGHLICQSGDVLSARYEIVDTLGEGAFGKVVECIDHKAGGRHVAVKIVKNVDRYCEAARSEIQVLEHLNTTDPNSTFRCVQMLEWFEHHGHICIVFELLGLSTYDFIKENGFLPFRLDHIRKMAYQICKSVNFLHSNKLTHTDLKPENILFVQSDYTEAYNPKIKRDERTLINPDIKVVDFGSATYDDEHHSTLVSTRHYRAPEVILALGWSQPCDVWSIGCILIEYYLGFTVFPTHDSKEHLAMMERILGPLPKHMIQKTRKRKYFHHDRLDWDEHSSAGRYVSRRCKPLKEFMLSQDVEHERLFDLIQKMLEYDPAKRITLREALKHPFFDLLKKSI
Note: in the data inactive means no Kd found up to 30 µM.

Sequence of Insulin receptor (P06213 28-758 limits assumed): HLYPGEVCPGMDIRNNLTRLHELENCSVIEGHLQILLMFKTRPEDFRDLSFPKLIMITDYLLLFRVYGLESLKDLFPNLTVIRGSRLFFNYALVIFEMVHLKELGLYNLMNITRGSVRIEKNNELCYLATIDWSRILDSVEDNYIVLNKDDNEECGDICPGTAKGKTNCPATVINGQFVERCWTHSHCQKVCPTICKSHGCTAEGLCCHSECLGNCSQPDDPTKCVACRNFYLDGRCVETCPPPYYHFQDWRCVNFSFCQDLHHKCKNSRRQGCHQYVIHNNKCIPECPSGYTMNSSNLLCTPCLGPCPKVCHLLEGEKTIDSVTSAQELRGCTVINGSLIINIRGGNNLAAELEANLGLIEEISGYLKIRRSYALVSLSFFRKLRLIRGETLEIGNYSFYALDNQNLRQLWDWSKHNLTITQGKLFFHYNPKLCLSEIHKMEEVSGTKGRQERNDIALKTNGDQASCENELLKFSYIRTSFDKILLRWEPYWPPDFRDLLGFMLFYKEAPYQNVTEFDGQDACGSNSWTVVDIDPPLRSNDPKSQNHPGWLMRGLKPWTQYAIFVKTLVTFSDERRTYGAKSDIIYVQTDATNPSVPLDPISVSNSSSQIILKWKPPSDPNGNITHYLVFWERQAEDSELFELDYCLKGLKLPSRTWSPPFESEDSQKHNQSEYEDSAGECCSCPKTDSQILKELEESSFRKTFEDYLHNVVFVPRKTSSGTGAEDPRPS
Sequence of Insulin receptor (P06213 763-1382 limits assumed): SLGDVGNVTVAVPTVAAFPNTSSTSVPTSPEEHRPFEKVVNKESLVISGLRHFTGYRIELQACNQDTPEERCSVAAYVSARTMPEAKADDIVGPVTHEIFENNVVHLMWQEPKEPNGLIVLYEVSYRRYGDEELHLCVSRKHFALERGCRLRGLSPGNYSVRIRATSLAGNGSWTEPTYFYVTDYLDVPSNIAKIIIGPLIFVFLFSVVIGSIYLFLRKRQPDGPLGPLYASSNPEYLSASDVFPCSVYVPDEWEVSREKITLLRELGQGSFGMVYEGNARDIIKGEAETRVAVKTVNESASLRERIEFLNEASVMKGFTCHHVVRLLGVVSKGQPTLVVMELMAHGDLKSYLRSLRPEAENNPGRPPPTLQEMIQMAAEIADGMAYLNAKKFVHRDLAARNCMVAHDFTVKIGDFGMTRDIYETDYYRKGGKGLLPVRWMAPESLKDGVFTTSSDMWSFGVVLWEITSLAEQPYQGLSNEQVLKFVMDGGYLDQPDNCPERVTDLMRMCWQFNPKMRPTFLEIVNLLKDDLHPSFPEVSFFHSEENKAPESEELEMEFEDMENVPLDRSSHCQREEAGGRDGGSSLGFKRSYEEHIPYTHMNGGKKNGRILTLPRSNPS
Sequence of BMP-2-inducible protein kinase (Q9NSY1 whole entry): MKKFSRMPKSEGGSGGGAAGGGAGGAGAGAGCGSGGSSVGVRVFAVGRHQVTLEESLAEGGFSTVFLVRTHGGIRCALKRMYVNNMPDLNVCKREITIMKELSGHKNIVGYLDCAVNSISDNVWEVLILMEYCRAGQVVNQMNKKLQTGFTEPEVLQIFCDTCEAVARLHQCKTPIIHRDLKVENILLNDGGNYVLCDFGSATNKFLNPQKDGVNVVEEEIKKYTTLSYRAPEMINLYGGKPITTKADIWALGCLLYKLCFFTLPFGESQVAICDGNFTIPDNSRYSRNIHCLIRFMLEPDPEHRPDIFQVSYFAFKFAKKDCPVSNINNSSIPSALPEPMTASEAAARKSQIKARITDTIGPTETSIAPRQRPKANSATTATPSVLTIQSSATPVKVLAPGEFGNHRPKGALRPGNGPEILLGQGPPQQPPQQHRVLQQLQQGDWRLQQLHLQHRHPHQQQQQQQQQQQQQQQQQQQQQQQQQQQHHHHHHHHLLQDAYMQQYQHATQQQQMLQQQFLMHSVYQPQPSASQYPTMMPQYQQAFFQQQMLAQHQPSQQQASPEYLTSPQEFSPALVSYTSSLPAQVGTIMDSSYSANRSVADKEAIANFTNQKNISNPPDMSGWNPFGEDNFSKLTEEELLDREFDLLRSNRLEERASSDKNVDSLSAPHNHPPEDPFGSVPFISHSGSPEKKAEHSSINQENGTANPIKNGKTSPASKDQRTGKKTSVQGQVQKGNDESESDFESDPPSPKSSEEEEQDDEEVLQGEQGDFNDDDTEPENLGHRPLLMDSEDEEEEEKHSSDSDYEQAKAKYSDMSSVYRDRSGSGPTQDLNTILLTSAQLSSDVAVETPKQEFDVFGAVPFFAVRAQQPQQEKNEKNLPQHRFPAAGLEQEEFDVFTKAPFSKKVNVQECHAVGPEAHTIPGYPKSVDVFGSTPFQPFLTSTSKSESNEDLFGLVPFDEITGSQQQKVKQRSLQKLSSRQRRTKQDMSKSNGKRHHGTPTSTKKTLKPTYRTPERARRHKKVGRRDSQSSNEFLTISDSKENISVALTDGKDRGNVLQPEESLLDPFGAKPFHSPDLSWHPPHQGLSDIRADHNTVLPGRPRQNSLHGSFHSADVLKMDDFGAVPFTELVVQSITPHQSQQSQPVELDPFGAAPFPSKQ

| SMILES | Kd (Insulin receptor) | Kd [1] | Kd [2] | Kd [3] | Kd [4] | Kd (Glycine--tRNA ligase) | Kd [5] | Kd [6] | Kd [7] |
| --- | --- | --- | --- | --- | --- | --- | --- | --- | --- |
| Cc1cc([C@@H](C)Nc2ccccc2C(=O)O)c2nc(N3CCOCC3)cc(=O)n2c1 [AZD-6482] | > 30 µM (inactive) | > 30 µM (inactive) | > 30 µM (inactive) | > 30 µM (inactive) | > 30 µM (inactive) | > 30 µM (inactive) | > 30 µM (inactive) | > 30 µM (inactive) | > 30 µM (inactive) |
| COC(=O)[C@@]1(O)C[C@H]2O[C@]1(C)n1c3ccccc3c3c4c(c5c6ccccc6n2c5c31)C(=O)NC4 [K-252A] | > 30 µM (inactive) | 0.09 µM (active) | > 30 µM (inactive) | 0.019 µM (active) | > 30 µM (inactive) | > 30 µM (inactive) | 4.03 µM (active) | > 30 µM (inactive) | 0.01 µM (active) |
| COc1ccc(-c2ccc3c(N4CCOC[C@@H]4C)nc(N4CCOC[C@@H]4C)nc3n2)cc1CO [AZD-8055] | > 30 µM (inactive) | > 30 µM (inactive) | > 30 µM (inactive) | > 30 µM (inactive) | > 30 µM (inactive) | > 30 µM (inactive) | > 30 µM (inactive) | > 30 µM (inactive) | > 30 µM (inactive) |
| Cc1ccc(-n2nc(C(C)(C)C)cc2NC(=O)NCc2cc(F)ccc2Oc2ccc3c(cnn3CCO)c2)cc1 [PEXMETINIB] | > 30 µM (inactive) | > 30 µM (inactive) | > 30 µM (inactive) | > 30 µM (inactive) | > 30 µM (inactive) | > 30 µM (inactive) | > 30 µM (inactive) | 2.5 µM (active) | > 30 µM (inactive) |

Continued, values first:

| Kd (Insulin receptor) | Kd [1] | Kd [2] | Kd [3] | Kd [4] | Kd (Glycine--tRNA ligase) | Kd [5] | Kd [6] | Kd [7] | SMILES |
| --- | --- | --- | --- | --- | --- | --- | --- | --- | --- |
| > 30 µM (inactive) | > 30 µM (inactive) | > 30 µM (inactive) | > 30 µM (inactive) | > 30 µM (inactive) | > 30 µM (inactive) | 0.206 µM (active) | > 30 µM (inactive) | > 30 µM (inactive) | C[C@@H](c1ccc2nccn2c1)n1nnc2ncc(-c3cnn(C)c3)nc21 [SAVOLITINIB] |
| > 30 µM (inactive) | > 30 µM (inactive) | > 30 µM (inactive) | > 30 µM (inactive) | > 30 µM (inactive) | > 30 µM (inactive) | > 30 µM (inactive) | > 30 µM (inactive) | > 30 µM (inactive) | CCn1c(=O)c(-c2cc[nH]n2)cc2c(C)nc(N)nc21 [VOXTALISIB] |
| > 30 µM (inactive) | > 30 µM (inactive) | > 30 µM (inactive) | > 30 µM (inactive) | > 30 µM (inactive) | > 30 µM (inactive) | > 30 µM (inactive) | > 30 µM (inactive) | > 30 µM (inactive) | CN(C)C(=O)c1cc2cnc(Nc3ccc(N4CCNCC4)cn3)nc2n1C1CCCC1 [RIBOCICLIB] |
| > 30 µM (inactive) | > 30 µM (inactive) | > 30 µM (inactive) | > 30 µM (inactive) | > 30 µM (inactive) | > 30 µM (inactive) | > 30 µM (inactive) | > 30 µM (inactive) | > 30 µM (inactive) | Cc1cc2c(F)c(Oc3ncnn4cc(OC[C@@H](C)OC(=O)[C@H](C)N)c(C)c34)ccc2[nH]1 [BRIVANIB ALANINATE] |
